# Results from US9452170B2, “Compounds and methods for inducing chondrogenesis” (The California Institute for Biomedical Research, priority 2013, dated 2016).
# Legend:
# [1] = Quantitation of compounds in rat knee joint extract after intra-articular injection (LC-MS/MS); type: in vivo; details: knee joint extract (whole joint, acetonitrile extract), other: intra-articular injection, 30 μL of 100 μM solution, 30 μL of 100 μM intra-articular, read-out: Concentration observed in extract; for concentration at 0 h: T = 0 h; for concentration at 0.5 h: T = 0.5 h; for concentration at 1 h: T = 1 h; for concentration at 2 h: T = 2 h
# Protocol: LC-MS/MS analysis for Chondrogenesis compounds were performed using an API 3000 equipped with an Agilent 1100 HPLC and a Leap Technologies autosampler. A HPLC Phenomenex 5 micron, 100 A Luna C18 (2) analytical column with dimensions of 2.0×50 mm (Part No. 00B-4252-B0) at a temperature of 30 C, flow rate of 0.6 mL/min, injection volume of 10 uL, and a 6.0 min run time was used. Mobile phase A1 was 0.1% formic acid in water and Mobile phase B1 was 0.1% formic acid in acetonitrile. The gradient was 90% A1/10% B1 at time 0; 90% A1/10% B1 at time 1.0 min; 10% A1/90% B1 at time 2.0 min; 10% A1/90% B1 at time 4.0 min; 90% A1/10% B1 at time 4.10 min; 90% A1/10% B1 at time 6.0 min. Analytes and internal standard quantitation were performed using Multiple Reaction Monitoring (MRM) quantitation method. Listed below are specific methods used to dose and measure exposure in plasma and the observed concentration in joint extract.
# Calibration standard curve was prepared by serial dilution of a concentrated, spike solution of the compound in internal standard diluents. Internal standard diluent was prepared by dissolving the internal standard compound at a certain concentration in acetonitrile. Rat knee joint samples for each time points were individually crushed and transferred into each centrifuge tube and added 1.0-mL of internal standard diluent. Each centrifuge tube was vortexed and centrifuged for 30 minutes. From each tube, supernatant was removed and injected onto the column for analysis. In addition, plasma samples were obtained by retro-orbital bleeds into heparin coated tubes and stored at −80 C and later processed by analogy to the protocol described above for rat plasma samples.
# 30 μL of 100 μM compound solution (PBS with 0.1% DMSO) was injected into the intra-articular space of the right hinder knee of each animal. The animals were euthanized at indicated time points (0 hr, 0.5 hr, 1 hr, 2 hr, 4 hr and 6 hr). Four animals were used for each timepoint. The injected knee joints were harvested, flash freeze in liquid nitrogen. The whole joints were grounded into powder while frozen, mixed with 1 mL internal standard-containing acetonitrile, incubated at 4° C. overnight, vortexed and centrifuged for 30 min. The supernatant from each sample was analyzed using LC-MS/MS. Data shown in Table 2 indicates the observed concentration in knee extract. ND=Not determined.
# Human MSCs = test: Human chondrocyte differentiation assay (immunostaining for type II collagen, Sox9 and COMP); type: cell-based; details: 168 h, compound 1 μM, 7 days, vs DMSO vehicle, read-out: Biological Activity (increase in staining intensity compared to vehicle control)
# Protocol: Human MSCs (50,000) were plated into each well of a 96-well plate and cultured overnight. Compounds (in DMSO solution) were added to the cells at a final concentration of 1 μM, and the cells were cultured for 7 days at 5% CO2, 37° C. The cells were fixed with 10% formalin solution at room temperature for 10 min, and immunostained using antibodies specific for type II collagen (Abcam), Sox9 (Santa Cruz) and cartilage oligomeric matrix protein (COMP, Santa Cruz), and fluorescently labeled secondary antibodies (Li-Cor). The total intensity of the staining was measured using Oddyssey CLx imaging system (Li-Cor). Vehicle (DMSO) was used as control to determine the basal level of chondrocyte differentiation. […] Representative data are shown in Table 1 [A: >50% increase in staining intensity compared to vehicle control; B: 30-50% increase in staining intensity compared to vehicle control].
Compound,activation at 1 µM (Human MSCs) [%],also measured
COCCc1ccc(NC(=O)c2ccccc2C(=O)O)cc1 [Compound 21],> 50,concentration at 0 h [1]: 434 ng/mL; concentration at 0.5 h [1]: 9.1 ng/mL; concentration at 1 h [1]: 4.9 ng/mL; concentration at 2 h [1]: 0 ng/mL
CNS(=O)(=O)c1ccc(N2Cc3ccccc3C2=O)cc1 [Compound 27],> 50,concentration at 0 h [1]: 592 ng/mL; concentration at 0.5 h [1]: 35.4 ng/mL; concentration at 1 h [1]: 6.3 ng/mL; concentration at 2 h [1]: 2.5 ng/mL
N#Cc1ccc(C(=O)Nc2ccccc2S(=O)(=O)N2CCOCC2)cc1 [Compound 62],> 50,concentration at 0 h [1]: 411 ng/mL; concentration at 0.5 h [1]: 109 ng/mL; concentration at 1 h [1]: 52.6 ng/mL; concentration at 2 h [1]: 15.7 ng/mL
CN(Cc1cccc(NC(=O)c2ccccc2C(=O)O)c1)S(C)(=O)=O [Compound 73],> 50,concentration at 0 h [1]: 587 ng/mL; concentration at 0.5 h [1]: 28.5 ng/mL; concentration at 1 h [1]: 9.41 ng/mL; concentration at 2 h [1]: 2.6 ng/mL
O=C(Nc1ccccc1S(=O)(=O)N1CCOCC1)c1cccc(F)c1 [Compound 110],30 to 50,–
CS(=O)(=O)c1ccc(C(=O)Nc2ccccc2S(=O)(=O)N2CCOCC2)cc1 [Compound 113],> 50,concentration at 0 h [1]: 566 ng/mL; concentration at 0.5 h [1]: 25.3 ng/mL; concentration at 1 h [1]: 4.2 ng/mL; concentration at 2 h [1]: 0 ng/mL
COCCc1ccc(NC(=O)c2ccccc2NS(C)(=O)=O)cc1 [Compound 117],> 50,concentration at 0 h [1]: 926 ng/mL; concentration at 0.5 h [1]: 50.6 ng/mL; concentration at 1 h [1]: 4.4 ng/mL; concentration at 2 h [1]: 0 ng/mL
O=C(Nc1ccccc1S(=O)(=O)N1CCOCC1)c1ccccc1F [Compound 118],30 to 50,–
CS(=O)(=O)Nc1ccccc1C(=O)NCc1ccc(C(=O)O)cc1 [Compound 120],30 to 50,–
CC(=O)c1cccc(C(=O)Nc2ccccc2S(=O)(=O)N2CCOCC2)c1 [Compound 122],> 50,–
O=C(Nc1ccccc1S(=O)(=O)N1CCOCC1)c1ccc(F)cc1 [Compound 123],> 50,concentration at 0 h [1]: 4430 ng/mL; concentration at 0.5 h [1]: 1100 ng/mL; concentration at 1 h [1]: 741 ng/mL; concentration at 2 h [1]: 338 ng/mL; concentration at 4 h ([1]; T = 4 h): 38 ng/mL; concentration at 6 h ([1]; T = 6 h): 0 ng/mL
CN(CCO)S(=O)(=O)c1ccccc1NC(=O)c1ccc(F)cc1 [Compound 125],30 to 50,–
CC1COCCN1S(=O)(=O)c1ccccc1NC(=O)c1ccc(F)cc1 (stereo not shown) [Compound 128],> 50,concentration at 0 h [1]: 7280 ng/mL; concentration at 0.5 h [1]: 2940 ng/mL; concentration at 1 h [1]: 1360 ng/mL; concentration at 2 h [1]: 546 ng/mL
O=C(Nc1ccccc1S(=O)(=O)N1CCOCC1)c1ccc(-c2ccccc2)cc1 [Compound 133],30 to 50,–
O=C(Nc1ccccc1S(=O)(=O)N1CCS(=O)(=O)CC1)c1ccc(F)cc1 [Compound 141],30 to 50,–
CC(=O)Nc1ccc(NC(=O)c2ccccc2C(=O)O)cc1 [Compound 142],30 to 50,–
CC(=O)CCc1cccc(NC(=O)c2ccccc2C(=O)O)c1 [Compound 145],30 to 50,–
O=C(O)c1ccc(C(=O)Nc2ccccc2S(=O)(=O)N2CCOCC2)cc1 [Compound 147],30 to 50,–
O=C(O)c1ccccc1C(=O)Nc1ccc(CCCO)cc1OC(F)(F)F [Compound 148],30 to 50,–
COc1cc(CNC(=O)c2ccccc2C(=O)O)ccc1C(=O)O [Compound 154],30 to 50,–
N#Cc1cc(CNC(=O)c2ccccc2C(=O)O)ccc1C(=O)O [Compound 155],> 50,–
COCCc1ccc(NC(=O)c2ccccc2NS(=O)(=O)c2ccccc2)cc1 [Compound 156],> 50,concentration at 0 h [1]: 109 ng/mL; concentration at 0.5 h [1]: 3.5 ng/mL; concentration at 1 h [1]: 0 ng/mL; concentration at 2 h [1]: 0 ng/mL
CCCS(=O)(=O)Nc1ccccc1C(=O)Nc1ccc(CCOC)cc1 [Compound 159],30 to 50,–
COCCc1ccc(NC(=O)c2ccccc2NS(=O)(=O)C(C)C)cc1 [Compound 162],30 to 50,–
O=C(O)Cc1ccc(CNC(=O)c2ccccc2C(=O)O)cc1 [Compound 164],> 50,–
CC(=O)Cc1ccc(CNC(=O)c2ccccc2C(=O)O)cc1 [Compound 166],30 to 50,–
NC(=O)c1ccc(CNC(=O)c2ccccc2C(=O)O)cc1 [Compound 172],30 to 50,–

Compound,activation at 1 µM (Human MSCs) [%],also measured
O=C(O)c1cc(CCCO)ccc1NC(=O)c1ccccc1C(=O)O [Compound 176],30 to 50,–
COc1cc(NC(=O)c2ccccc2C(=O)O)ccc1CCCO [Compound 178],30 to 50,–
O=C(O)c1cc(F)ccc1C(=O)Nc1ccc(CCCO)cc1 [Compound 180],30 to 50,–
O=C(Nc1ccc(CCCO)cc1)c1cccc(F)c1C(=O)O [Compound 181],30 to 50,–
O=C(O)c1cccc(F)c1C(=O)Nc1ccc(CCCO)cc1 [Compound 182],30 to 50,–
O=C(O)c1ccc(F)cc1C(=O)Nc1ccc(CCCO)cc1 [Compound 183],30 to 50,–
O=C(O)c1cc(Cl)ccc1C(=O)Nc1ccc(CCCO)cc1 [Compound 184],30 to 50,–
O=C(Nc1ccc(CCCO)cc1)c1cccc(Cl)c1C(=O)O [Compound 185],30 to 50,–
O=C(O)c1cccc(Cl)c1C(=O)Nc1ccc(CCCO)cc1 [Compound 186],30 to 50,–
O=C(O)c1ccc(Cl)cc1C(=O)Nc1ccc(CCCO)cc1 [Compound 187],30 to 50,–
Cc1cccc(C(=O)Nc2ccc(CCCO)cc2)c1C(=O)O [Compound 189],> 50,–
Cc1cccc(C(=O)O)c1C(=O)Nc1ccc(CCCO)cc1 [Compound 190],> 50,–
COC(=O)c1ccccc1NC(=O)Nc1cccc(C(C)=O)c1 [Compound 193],30 to 50,–
COC(=O)c1ccccc1NC(=O)Nc1ccccc1C(F)(F)F [Compound 194],30 to 50,–
COC(=O)c1ccccc1NC(=O)Nc1cccc(C(F)(F)F)c1 [Compound 195],30 to 50,–
O=C(Nc1cccc(C(F)(F)F)c1)Nc1ccccc1C(=O)O [Compound 196],30 to 50,–
COC(=O)c1ccccc1NC(=O)Nc1ccccc1C [Compound 197],30 to 50,–
COC(=O)c1ccccc1NC(=O)Nc1ccc(C)cc1 [Compound 198],30 to 50,–
Cc1ccccc1NC(=O)Nc1ccccc1C(=O)O [Compound 199],30 to 50,–
COC(=O)c1ccccc1NC(=O)Nc1ccccc1 [Compound 200],30 to 50,–
COC(=O)c1ccccc1NC(=O)Nc1ccc2ccccc2c1 [Compound 201],30 to 50,–
COC(=O)c1ccccc1NC(=O)Nc1cccc(C#N)c1 [Compound 202],> 50,–
O=C(Nc1ccccc1)Nc1ccccc1C(=O)O [Compound 203],30 to 50,–
CC(=O)c1cccc(NC(=O)Nc2ccccc2C(=O)O)c1 [Compound 204],30 to 50,–
CC(=O)c1ccccc1NC(=O)Nc1ccccc1C(=O)O [Compound 205],30 to 50,–
COC(=O)c1ccccc1NC(=O)Nc1ccc(C(C)=O)cc1 [Compound 206],30 to 50,–
